Assay results: the kinase profiling compilation of Christmann-Franck et al. (2016)

Tests used:
Assay in all cases: radiometric filter-binding kinase assay
SRC (human) = SRC (human) (UniProt P12931); conditions: compound 10.0 µM
MAPK10 (human) = MAPK10 (human) (UniProt P53779); conditions: compound 10.0 µM
MAPK15 (human) = MAPK15 (human) (UniProt Q8TD08); conditions: compound 10.0 µM
MINK1 (human) = MINK1 (human) (UniProt Q8N4C8); conditions: compound 10.0 µM
NEK2 (human) = NEK2 (human) (UniProt P51955)
Sequence of NEK2 (human) (P51955 whole entry, looked up): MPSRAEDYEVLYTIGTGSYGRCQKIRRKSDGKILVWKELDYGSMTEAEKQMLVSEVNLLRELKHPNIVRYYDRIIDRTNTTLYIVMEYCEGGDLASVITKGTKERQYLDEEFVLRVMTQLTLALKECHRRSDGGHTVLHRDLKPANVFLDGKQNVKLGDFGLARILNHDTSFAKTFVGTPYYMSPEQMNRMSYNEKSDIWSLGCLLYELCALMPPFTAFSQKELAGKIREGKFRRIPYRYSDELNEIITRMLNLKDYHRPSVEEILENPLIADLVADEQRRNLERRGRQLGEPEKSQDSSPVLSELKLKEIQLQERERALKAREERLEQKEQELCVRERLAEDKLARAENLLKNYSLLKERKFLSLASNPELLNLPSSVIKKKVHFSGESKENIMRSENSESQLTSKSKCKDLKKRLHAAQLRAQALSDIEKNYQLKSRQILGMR

PKN2 (human) = PKN2 (human) (UniProt Q16513); conditions: compound 10.0 µM
NTRK1 (human) = NTRK1 (human) (UniProt P04629); conditions: compound 10.0 µM
IGF1R (human) = IGF1R (human) (UniProt P08069); conditions: compound 10.0 µM
MAP3K1 (human) = MAP3K1 (human) (UniProt Q13233); conditions: compound 10.0 µM
AURKB (human) = AURKB (human) (UniProt Q96GD4); conditions: compound 10.0 µM
GCK (human) = GCK (human) (UniProt Q12851); conditions: compound 10.0 µM
CAMKK2 (human) = CAMKK2 (human) (UniProt Q96RR4); conditions: compound 10.0 µM
[1] = system: AKT2 (human), P31751 [S474D]; conditions: compound 10.0 µM
MKNK2 (human) = MKNK2 (human) (UniProt Q9HBH9); conditions: compound 10.0 µM
EPHB4 (human) = EPHB4 (human) (UniProt P54760); conditions: compound 10.0 µM
MAP2K1 (human) = MAP2K1 (human) (UniProt Q02750)
Sequence of MAP2K1 (human) (Q02750 whole entry, looked up): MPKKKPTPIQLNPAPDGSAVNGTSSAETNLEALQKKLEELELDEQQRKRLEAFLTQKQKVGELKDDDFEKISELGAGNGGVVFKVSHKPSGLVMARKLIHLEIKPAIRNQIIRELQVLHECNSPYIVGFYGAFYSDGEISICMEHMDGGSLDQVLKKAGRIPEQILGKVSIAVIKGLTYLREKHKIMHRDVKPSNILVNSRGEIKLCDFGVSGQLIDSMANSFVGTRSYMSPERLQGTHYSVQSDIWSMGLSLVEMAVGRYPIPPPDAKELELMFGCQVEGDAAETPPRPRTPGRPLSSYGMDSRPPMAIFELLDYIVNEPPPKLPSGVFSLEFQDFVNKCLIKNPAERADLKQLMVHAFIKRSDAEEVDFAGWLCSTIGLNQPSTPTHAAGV

PIM2 (human) = PIM2 (human) (UniProt Q9P1W9); conditions: compound 10.0 µM
[2] = biological target: STK11 CAB39 STRADA (human) (UniProt Q9Y376+Q7RTN6+Q15831); conditions: compound 10.0 µM
CHEK2 (human) = CHEK2 (human) (UniProt O96017); conditions: compound 10.0 µM
PRKACA (human) = PRKACA (human) (UniProt P17612)
RPS6KA1 KD1 KD2 (human) = RPS6KA1 KD1 KD2 (human) (UniProt Q15418)
Sequence of RPS6KA1 KD1 KD2 (human) (Q15418 whole entry, looked up): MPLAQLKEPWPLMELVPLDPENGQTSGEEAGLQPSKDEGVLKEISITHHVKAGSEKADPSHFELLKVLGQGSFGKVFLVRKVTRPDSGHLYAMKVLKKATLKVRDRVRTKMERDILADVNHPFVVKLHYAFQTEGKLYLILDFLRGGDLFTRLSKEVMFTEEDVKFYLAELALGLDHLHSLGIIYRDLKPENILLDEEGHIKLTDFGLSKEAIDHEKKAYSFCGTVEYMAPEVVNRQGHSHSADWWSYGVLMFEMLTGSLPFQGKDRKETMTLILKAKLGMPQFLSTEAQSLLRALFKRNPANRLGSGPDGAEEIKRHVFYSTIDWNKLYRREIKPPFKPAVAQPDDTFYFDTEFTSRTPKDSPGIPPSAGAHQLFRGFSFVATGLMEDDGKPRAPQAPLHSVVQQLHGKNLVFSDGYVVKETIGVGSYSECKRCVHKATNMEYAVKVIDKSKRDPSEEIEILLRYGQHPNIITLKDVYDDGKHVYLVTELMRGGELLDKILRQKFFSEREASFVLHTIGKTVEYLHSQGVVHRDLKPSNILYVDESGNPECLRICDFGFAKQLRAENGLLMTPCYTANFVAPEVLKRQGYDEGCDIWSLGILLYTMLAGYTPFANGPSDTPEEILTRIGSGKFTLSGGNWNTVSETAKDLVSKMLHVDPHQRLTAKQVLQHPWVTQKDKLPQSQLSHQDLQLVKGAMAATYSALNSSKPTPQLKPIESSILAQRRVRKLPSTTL

PRKAA1 or PRKAA2 (rat) = conditions: accession and sequence are those of the human protein
CHEK1 (human) = CHEK1 (human) (UniProt O14757)
Sequence of CHEK1 (human) (O14757 whole entry, looked up): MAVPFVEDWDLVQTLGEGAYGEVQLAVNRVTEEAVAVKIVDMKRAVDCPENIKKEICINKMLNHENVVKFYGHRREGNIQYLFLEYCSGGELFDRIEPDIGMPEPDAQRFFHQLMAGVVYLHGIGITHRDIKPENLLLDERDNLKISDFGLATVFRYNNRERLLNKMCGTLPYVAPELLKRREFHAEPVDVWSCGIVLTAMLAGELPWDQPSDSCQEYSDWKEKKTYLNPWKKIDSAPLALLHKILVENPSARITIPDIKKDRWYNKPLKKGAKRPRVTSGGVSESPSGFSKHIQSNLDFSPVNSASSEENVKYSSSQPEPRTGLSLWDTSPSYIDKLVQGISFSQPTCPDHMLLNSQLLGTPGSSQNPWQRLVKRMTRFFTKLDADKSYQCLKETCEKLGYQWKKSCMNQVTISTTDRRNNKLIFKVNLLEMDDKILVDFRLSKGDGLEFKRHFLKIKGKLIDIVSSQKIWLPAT

MARK2 (human) = MARK2 (human) (UniProt Q7KZI7); conditions: compound 10.0 µM
IKBKB (human) = IKBKB (human) (UniProt O14920); conditions: compound 10.0 µM
MAP3K5 (human) = MAP3K5 (human) (UniProt Q99683); conditions: compound 10.0 µM
PHKG1 (human) = PHKG1 (human) (UniProt Q16816)
Sequence of PHKG1 (human) (Q16816 whole entry, looked up): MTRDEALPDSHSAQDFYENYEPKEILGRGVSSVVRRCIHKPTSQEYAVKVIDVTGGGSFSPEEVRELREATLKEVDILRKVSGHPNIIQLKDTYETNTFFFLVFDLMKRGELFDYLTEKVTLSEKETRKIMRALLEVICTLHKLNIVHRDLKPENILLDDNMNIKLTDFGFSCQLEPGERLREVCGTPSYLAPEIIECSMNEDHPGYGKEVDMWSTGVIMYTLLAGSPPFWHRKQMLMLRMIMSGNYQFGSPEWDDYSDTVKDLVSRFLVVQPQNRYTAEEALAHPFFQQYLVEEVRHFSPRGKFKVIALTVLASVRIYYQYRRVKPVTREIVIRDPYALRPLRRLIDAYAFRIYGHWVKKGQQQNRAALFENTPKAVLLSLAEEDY

MKNK1 (human) = MKNK1 (human) (UniProt Q9BUB5); conditions: compound 10.0 µM
STK3 (human) = STK3 (human) (UniProt Q13188); conditions: compound 10.0 µM
PRKCA (human) = PRKCA (human) (UniProt P17252)
MAPK9 (human) = MAPK9 (human) (UniProt P45984); conditions: compound 10.0 µM
MAPKAPK2 (human) = MAPKAPK2 (human) (UniProt P49137)
Sequence of MAPKAPK2 (human) (P49137 whole entry, looked up): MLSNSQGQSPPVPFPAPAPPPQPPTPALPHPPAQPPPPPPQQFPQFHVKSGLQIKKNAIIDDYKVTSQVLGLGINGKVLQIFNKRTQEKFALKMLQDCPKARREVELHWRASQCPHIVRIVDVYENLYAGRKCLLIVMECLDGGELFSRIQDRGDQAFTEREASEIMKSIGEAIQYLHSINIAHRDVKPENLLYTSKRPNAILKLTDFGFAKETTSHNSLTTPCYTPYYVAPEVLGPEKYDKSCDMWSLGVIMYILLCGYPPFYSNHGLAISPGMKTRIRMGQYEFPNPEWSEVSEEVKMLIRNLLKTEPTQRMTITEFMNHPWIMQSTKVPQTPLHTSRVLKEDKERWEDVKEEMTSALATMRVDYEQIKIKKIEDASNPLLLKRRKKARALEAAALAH

MAPK3 (human) = MAPK3 (human) (UniProt P27361); conditions: compound 10.0 µM
YES1 (human) = YES1 (human) (UniProt P07947); conditions: compound 10.0 µM
MAPK1 (human) = MAPK1 (human) (UniProt P28482)
Sequence of MAPK1 (human) (P28482 whole entry, looked up): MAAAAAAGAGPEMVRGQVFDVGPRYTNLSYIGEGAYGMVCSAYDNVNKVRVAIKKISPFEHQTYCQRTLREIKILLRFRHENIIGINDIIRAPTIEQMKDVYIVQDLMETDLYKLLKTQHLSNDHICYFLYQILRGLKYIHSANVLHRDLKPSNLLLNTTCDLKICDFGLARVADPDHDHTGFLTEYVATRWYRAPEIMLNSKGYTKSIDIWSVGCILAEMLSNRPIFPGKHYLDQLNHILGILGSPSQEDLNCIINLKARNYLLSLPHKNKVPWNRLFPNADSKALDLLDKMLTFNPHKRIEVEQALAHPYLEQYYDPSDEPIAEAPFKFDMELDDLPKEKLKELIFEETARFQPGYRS

Sequence of MAPK15 (human) (Q8TD08 whole entry, looked up): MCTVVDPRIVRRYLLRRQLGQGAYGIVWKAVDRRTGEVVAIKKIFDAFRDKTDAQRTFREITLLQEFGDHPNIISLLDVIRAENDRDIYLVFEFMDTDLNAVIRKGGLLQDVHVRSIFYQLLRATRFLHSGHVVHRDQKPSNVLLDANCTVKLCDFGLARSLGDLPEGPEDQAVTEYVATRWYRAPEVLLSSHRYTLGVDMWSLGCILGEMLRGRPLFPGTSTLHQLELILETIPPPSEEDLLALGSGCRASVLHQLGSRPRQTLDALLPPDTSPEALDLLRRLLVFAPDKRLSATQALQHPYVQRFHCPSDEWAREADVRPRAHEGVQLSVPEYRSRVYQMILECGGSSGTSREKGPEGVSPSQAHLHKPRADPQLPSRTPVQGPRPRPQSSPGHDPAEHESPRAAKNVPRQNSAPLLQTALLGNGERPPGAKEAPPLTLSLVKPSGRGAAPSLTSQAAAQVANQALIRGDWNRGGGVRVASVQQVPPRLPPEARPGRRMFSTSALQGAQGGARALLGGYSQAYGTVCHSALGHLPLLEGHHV
Sequence of SRC (human) (P12931 whole entry, looked up): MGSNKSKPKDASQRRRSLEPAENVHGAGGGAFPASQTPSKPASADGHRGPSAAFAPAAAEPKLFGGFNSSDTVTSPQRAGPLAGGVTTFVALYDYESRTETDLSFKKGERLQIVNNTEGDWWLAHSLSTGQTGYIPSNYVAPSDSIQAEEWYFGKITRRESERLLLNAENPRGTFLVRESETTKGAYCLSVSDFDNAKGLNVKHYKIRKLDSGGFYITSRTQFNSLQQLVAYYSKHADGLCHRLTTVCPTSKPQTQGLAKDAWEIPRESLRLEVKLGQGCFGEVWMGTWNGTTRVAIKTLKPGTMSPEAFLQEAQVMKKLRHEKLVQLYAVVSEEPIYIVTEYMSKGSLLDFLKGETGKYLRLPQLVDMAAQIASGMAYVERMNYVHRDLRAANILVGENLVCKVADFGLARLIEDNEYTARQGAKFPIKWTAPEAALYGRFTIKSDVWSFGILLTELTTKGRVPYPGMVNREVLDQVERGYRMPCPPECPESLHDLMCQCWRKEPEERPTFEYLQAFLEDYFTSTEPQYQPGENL

Cc1ccc2c(c1)C(=O)[C@@]1(O)CCN(c3ccccc3)C1=N2
residual activity (SRC (human)): 80%
residual activity (MAPK10 (human)): 99%
residual activity (MAPK15 (human)): 89%
residual activity (MINK1 (human)): 72%
residual activity (NEK2 (human); compound 10.0 µM): 77%
residual activity (NEK2 (human); compound 100.0 µM): 82%
residual activity (PKN2 (human)): 95%
residual activity (NTRK1 (human)): 103%
residual activity (IGF1R (human)): 88%
residual activity (MAP3K1 (human)): 100%
residual activity (AURKB (human)): 88%
residual activity (GCK (human)): 97%
residual activity (CAMKK2 (human)): 90%
residual activity [1]: 74%
residual activity (MKNK2 (human)): 104%
residual activity (EPHB4 (human)): 99%
residual activity (MAP2K1 (human); compound 10.0 µM): 89%
residual activity (MAP2K1 (human); compound 100.0 µM): 99%
residual activity (PIM2 (human)): 93%
residual activity [2]: 81%
residual activity (CHEK2 (human)): 100%
residual activity (PRKACA (human); compound 10.0 µM): 101%
residual activity (PRKACA (human); compound 100.0 µM): 70%
residual activity (RPS6KA1 KD1 KD2 (human); compound 10.0 µM): 76%
residual activity (RPS6KA1 KD1 KD2 (human); compound 100.0 µM): 77%
residual activity (PRKAA1 or PRKAA2 (rat); compound 10.0 µM): 92%
residual activity (PRKAA1 or PRKAA2 (rat); compound 100.0 µM): 60%
residual activity (CHEK1 (human); compound 10.0 µM): 90%
residual activity (CHEK1 (human); compound 100.0 µM): 96%
residual activity (MARK2 (human)): 93%
residual activity (IKBKB (human)): 96%
residual activity (MAP3K5 (human)): 91%
residual activity (PHKG1 (human); compound 10.0 µM): 114%
residual activity (PHKG1 (human); compound 100.0 µM): 86%
residual activity (MKNK1 (human)): 97%
residual activity (STK3 (human)): 104%
residual activity (PRKCA (human); compound 10.0 µM): 103%
residual activity (PRKCA (human); compound 100.0 µM): 75%
residual activity (MAPK9 (human)): 88%
residual activity (MAPKAPK2 (human); compound 10.0 µM): 82%
residual activity (MAPKAPK2 (human); compound 100.0 µM): 80%
residual activity (MAPK3 (human)): 102%
residual activity (YES1 (human)): 96%
residual activity (MAPK1 (human); compound 10.0 µM): 91%
residual activity (MAPK1 (human); compound 100.0 µM): 82%
